Measured values published in US20030203410A1, “Gestational agents which modulate cell proliferation” (priority 1999, published 2003).
In brackets after ≈: the same amount, converted by molar mass.

Tests used:
[1] = system: Venezuelan Equine Encephalitis; assay: microbe, parasite or virus in culture; assay type: cell-based, Venezuelan equine encephalitis virus; settings: for EC50: Venezuelan equine encephalitis virus, EXPT EV/VEC4
[2] = in vitro; settings: African green monkey
[3] = system: African green monkey kidney (Vero) cells
[4] = system: San Angelo Virus; assay: microbe, parasite or virus in culture; assay type: cell-based
[5] = in vitro; settings: African green monkey; remark: listed apart in the source
[6] = in vitro; settings: African green monkey; remark: listed apart in the source
[7] = system: Simian Rotavirus; assay: Inhibition of viral cytopathic effect (visual CPE and neutral red), simian rotavirus in MA104 cells; assay type: cell-based; settings: for EC50: Rotavirus A, EXPT EV/RtC2
[8] = system: Vaccinia Virus; assay: microbe, parasite or virus in culture; assay type: cell-based; settings: for EC50: Orthopoxvirus vaccinia, EXPT EV/VC2
[9] = in vitro; settings: African green monkey; remark: listed apart in the source
[10] = system: Herpes Simplex Type I; assay: Inhibition of viral cytopathic effect (visual CPE and neutral red), HSV-1 in MRC-5 cells; assay type: cell-based, type 1 herpes (HSV-1); settings: for EC50: EXPT EV/H1C2
[11] = in vitro; settings: human

## NC(=O)c1ncn([C@@H]2O[C@H](CO)[C@@H](O)[C@H]2O)n1 [Ribavirin, ribavirin]
[1]; MA104, neutral red assay, neutral red data questionable
  EC50: > 100 µg/mL
[1]; MA104, visual CPE
  EC50: 7.6 µg/mL (≈ 31.1 µM)
[1]; visual
  COMMENT: Very good activity.
[2]
  CC50: 560 µg/mL (≈ 2290 µM)
[3]
  CC50: 530 µg/mL (≈ 2170 µM)
[4]
  COMMENT: Very good activity.
[4]; San Angelo virus, Vero
  EC50: 30 µg/mL (≈ 123 µM)
[5]
  CC50: > 100 µg/mL
[6]
  CC50: > 100 µg/mL
[7]; MA104, neutral red assay
  EC50: 56 µg/mL (≈ 229 µM)
[7]; MA104, visual CPE
  EC50: 18 µg/mL (≈ 73.7 µM)
[7]; neutral red assay
  COMMENT: Slight activity.
[7]; visual
  COMMENT: Moderate activity.

## Nc1ccn(C[C@@H](CO)OCP(=O)(O)O)c(=O)n1 [HPMPC, cidofovir]
[8]; CV-1, neutral red assay
  EC50: 1.7 µg/mL (≈ 6.09 µM)
[8]; CV-1, visual CPE
  EC50: 5.4 µg/mL (≈ 19.3 µM)
[8]; neutral red assay
  COMMENT: Excellent activity.
[8]; visual
  COMMENT: Very good activity.
[9]
  CC50: > 100 µg/mL

## Nc1nc2c(ncn2COCCO)c(=O)[nH]1 [Acyclovir, acyclovir]
[10]; Human alphaherpesvirus 1, MRC5, neutral red assay
  EC50: 0.4 µg/mL (≈ 1.78 µM)
[10]; Human alphaherpesvirus 1, MRC5, visual CPE
  EC50: 0.6 µg/mL (≈ 2.66 µM)
[10]; neutral red assay
  COMMENT: Excellent activity.
[10]; visual
  COMMENT: Excellent activity.
[11]
  CC50: > 100 µg/mL
